Assay results published in EPA's ToxValDB 9.5 (doi:10.2903/j.efsa.2014.3692).
≈ marks a conversion by molar mass, not a printed value.

Assays:
Apis mellifera = settings: acute, mortality
Bibionidae = settings: chronic/long-term; duration: 28 days
Canidae = settings: reproduction developmental; duration: 90 days; Dog Other; mortality
Chironomus tentans = settings: acute, mortality
Colinus virginianus = settings: for LD50: acute, oral, mortality
Cyprinodon variegatus = settings: mortality
Mus musculus = settings: acute; oral; mortality
Rattus norvegicus = settings: for LD50: acute, mortality

In the case of `CC(c1ccc(C(F)(F)F)nc1)S(C)(=O)=NC#N` (centres undefined) [Sulfoxaflor], the NOAEL (Anas platyrhynchos; reproductive, reproduction) is reported as 25.9 mg/kg-day, the LD50 (Anas platyrhynchos; short-term, oral, feed, mortality) is reported as > 1050 mg/kg-day and the LD50 (Apis mellifera; duration: 48 hours, oral, unspecified) is reported as 0.146 µg/piece. For the same compound, the LD50 (Apis mellifera; duration: 72 hours, dermal) was 0.379 µg/piece, the NOEC (Bibionidae) was 0.0384 mg/L and the NOAEL (Canidae) was 6.63 mg/kg-day. The LC50 (Chironomus tentans; duration: 96 hours) was 0.622 µg/mL (≈ 2.24 µM), the LC50 (Chironomus tentans; duration: 10 days) was 0.119 mg/kg and the LD50 (Colinus virginianus; diet) was > 1150 mg/kg-day. The LD50 (Colinus virginianus) was 676 mg/kg, the NOAEL (Colinus virginianus; reproduction developmental, reproduction) was 84.4 mg/kg-day and the LC50 (Cyprinodon variegatus; acute, duration: 96 hours) was 266 µg/mL (≈ 959 µM). The NOEC (Cyprinodon variegatus; chronic/long-term, duration: 38 days) was 1.21 mg/L, the LD50 (Mus musculus) was 750 mg/kg and the LC50 (Neomysis kadiakensis; acute, duration: 96 hours, mortality) was 0.643 µg/mL (≈ 2.32 µM). For the same compound, the NOEC (Neomysis kadiakensis; chronic/long-term, duration: 28 days, reproduction) was 0.114 mg/L, the LD50 (Rattus norvegicus; oral) was 1000 mg/kg and the NOAEL (Rattus norvegicus; chronic, duration: 2 years, other) was 4.24 mg/kg-day. The NOAEL (Rattus norvegicus; repeat dose other, neurology) was 25 mg/kg-day, the NOAEL (Rattus norvegicus; subchronic, duration: 90 days, oral, histopathology: nonneoplastic) was 6.36 mg/kg-day and the LC50 (Tagia sp.; acute, duration: 14 days, mortality) was 0.885 mg/kg. It also gave an NOEC (Tagia sp.; chronic/long-term, duration: 8 weeks) of 0.1 mg/kg.

`CC(O)c1ccc(C(F)(F)F)nc1` (centres undefined) [1-(6-(Trifluoromethyl)pyridin-3-yl)ethanol] was tested, and the LD50 (Colinus virginianus) was 1040 mg/kg and the LD50 (Rattus norvegicus) was 2000 mg/kg.
